Measurements: patent US12697352B2, “Instructions for composition and sensitivity” (Azura Ophthalmics Ltd., priority 2020, dated 2026)
Like-named read-outs stand apart in the source and are kept apart here.

Legend:
[1] = tested on: patients
From the text: In a clinical study three different concentrations were used; 0.1 wt. %, (10 subjects) 0.5 wt. % (12 subjects) and 1 wt. % (26 subjects).

[2] = tested on: human subject
Description: In most instances, the treatment is applied on a biweekly basis, however some patients move to daily application based on prespecified protocol criteria. Because the ointment-based composition is known to mix with tear fluid and cause blurry vision, individuals in this study are advised to apply the treatment prior to bed so as to avoid risks associated with reduced vision acuity. […] The in-office applications are conducted at specific, pre-determined time points. In these instances, the treatment is not applied before bed but rather is performed during daylight hours.

[3] = tested on: patients; settings: in vivo
Description: In a first study patients were instructed to dose in both the evening, between visits, and in the daytime during regular scheduled clinic visits as part of the study protocol. Study patients received a 2-week run-in on a placebo which was administered twice weekly for a period of two weeks.
Adverse events comprise a feeling of grittiness, foreign body feeling, stinging, blurry vision, redness, tired eyes, water eyes, irritation, lid abnormalities, burning, corneal abrasion, photophobia, staining, or dry eye disorder (DED).

[4] = tested on: meibomian gland disorder (MGD) patients; settings: twice a week, 3 month time point
Description: The drug was applied twice a week and final evaluation was done at the 3 month time point in which the primary outcome of Meibomian Gland Score (MGS) was assessed.

[5] = tested on: rabbits; settings: dose about 4 mg SeS2, concentration up to 2.5 wt. %, ointment applied over the eyelid margin
[6] = tested on: seborrheic blepharitis; settings: cited from earlier work
[7] = in vivo; cited from earlier work

Substance: selenium disulfide [SeS2]
- development of keratitis ([1]; human, in vivo): no development of keratitis
- occurrence of keratitis with bedtime applications ([1]; human, in vivo): without a single occurrence of keratitis
- subjects who developed keratitis or keratitis related symptoms ([1]; human, in vivo): four
- total OSDI, VAS and SPEED ([1]; one patient, 1 wt. %, first month, twice weekly at home before bedtime): significant improvement
- health outcomes by OSDI, VAS and SPEED ([2]; at least one patient, 1 wt. %, one month of treatment): improved health outcomes
- keratitis ([2]; in vivo): Keratitis is not observed
- patients noting symptoms of keratitis ([2]; in vivo): four
- reduction in the incidence of ocular adverse events [3]: 75%
- reduction of rate of ocular adverse events (ocular AE) [3]: at least 50%
- average change from baseline in Meibomian Gland Score (MGS) ([4]; 9 patients applying with finger): 10 (+/−8.2)
- average change from baseline in Meibomian Gland Score (MGS) ([4]; 13 patients using the applicator (swab)): 2.3 (+/−4.4)
- tolerability [5]: well tolerated
- efficacy in treating seborrheic blepharitis ([6]; SeS2 0.5%, conclusion of most investigators): effective
- adverse events following topical ocular use ([6]; in vivo): superficial punctate keratitis and conjunctivitis
- safe concentration of ophthalmic preparation for use in humans ([6]; in vivo): 0.5%
- adverse effect of shampooing [7]: diffuse hair loss
- contact dermatitis or photo-contact dermatitis in tinea versicolor treatment [7]: None of the investigators encountered a single case
- skin irritant effect [7]: can produce contact dermatitis
- skin reaction after shampoo application [7]: circumscribed eczematous plaques on the light-exposed areas
- time to resolution of hair loss after discontinuance [7]: 1-2 weeks
